# Measurements reported in patent US9682925B2, “Cyclopropaneamine compound” (TAKEDA PHARMACEUTICAL COMPANY LIMITED, priority 2011, dated 2017).
# Where a name gives a salt, the structure may show the parent alone.
# Legend:
# Format in all cases: biochemical
# [1] = target: T1, human LSD1(171-852) (Homo sapiens, UniProt O60341); experiment: Measurement of LSD1 inhibitory activity (time-resolved fluorescence, biotin-histone H3 mono methylated K4 peptide); settings: read-out: LSD1 IC50 value
# T1 construct: to give hLSD1(171-852) purified product; made in house; host or cells: Escherichia coli C43(DE3) pLysS
# [2] = target: T2, MAO-B (Homo sapiens, UniProt P27338); experiment: Measurement of MAO-B inhibitory activity (MAO-Glo Assay)
# T2 construct: purchased Sigma-Aldrich Co. LLC
# T2 sequence (P27338 1-520): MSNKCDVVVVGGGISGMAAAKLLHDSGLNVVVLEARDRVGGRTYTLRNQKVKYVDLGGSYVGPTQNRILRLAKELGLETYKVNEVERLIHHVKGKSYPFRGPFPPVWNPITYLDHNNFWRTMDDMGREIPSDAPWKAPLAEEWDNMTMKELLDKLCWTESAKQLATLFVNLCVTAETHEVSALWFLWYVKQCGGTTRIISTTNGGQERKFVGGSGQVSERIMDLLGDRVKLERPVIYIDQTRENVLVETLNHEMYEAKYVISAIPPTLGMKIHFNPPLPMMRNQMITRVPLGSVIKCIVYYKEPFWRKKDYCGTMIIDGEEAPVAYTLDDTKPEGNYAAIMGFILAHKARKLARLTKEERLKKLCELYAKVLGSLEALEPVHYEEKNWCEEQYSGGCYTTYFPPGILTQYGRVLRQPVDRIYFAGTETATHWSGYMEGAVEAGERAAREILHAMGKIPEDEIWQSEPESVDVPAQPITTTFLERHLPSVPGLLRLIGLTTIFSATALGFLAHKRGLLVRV
# In short: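 Percent inhibition was calculated from luciferin-based luminescence, corrected with a blank lacking enzyme and a control lacking compound. The reaction ran 60 min at room temperature after adding MAO substrate (16 µM as added). This followed a 10 min compound–enzyme preincubation in HEPES pH 7.5 buffer.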
# [3] = target: T3, MAO-A (Homo sapiens, UniProt P21397); experiment: Measurement of MAO-A inhibitory activity (MAO-Glo Assay)
# T3 construct: purchased Sigma-Aldrich Co. LLC
# T3 sequence (P21397 1-527): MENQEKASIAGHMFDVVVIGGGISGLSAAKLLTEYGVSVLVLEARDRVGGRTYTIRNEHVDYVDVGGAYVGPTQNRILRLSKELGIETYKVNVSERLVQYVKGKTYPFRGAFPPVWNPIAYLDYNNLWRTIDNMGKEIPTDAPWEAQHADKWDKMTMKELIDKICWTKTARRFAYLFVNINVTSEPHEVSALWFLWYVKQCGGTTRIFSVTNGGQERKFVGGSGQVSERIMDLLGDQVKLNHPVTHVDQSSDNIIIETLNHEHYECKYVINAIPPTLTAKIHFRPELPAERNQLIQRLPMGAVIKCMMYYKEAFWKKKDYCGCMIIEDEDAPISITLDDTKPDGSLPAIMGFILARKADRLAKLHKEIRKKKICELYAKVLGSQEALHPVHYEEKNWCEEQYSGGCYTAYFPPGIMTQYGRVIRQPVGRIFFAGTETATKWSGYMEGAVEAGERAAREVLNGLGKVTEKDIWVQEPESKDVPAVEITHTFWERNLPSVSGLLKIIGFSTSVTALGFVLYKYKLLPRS
# In short: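 MAO-A (400 ng) was pre-incubated with compound 10 min at room temperature in 100 mM HEPES pH 7.5, 5% glycerol, then MAO substrate (160 μM stock) added for 60 min. Luciferin detection reagent, 20 min, luminescence; % inhibition against no-compound control minus no-enzyme blank.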
structure (smiles),measurement,setting,value
"O=C(Nc1ccc([C@@H]2C[C@H]2NC2CCOCC2)cc1)c1ccc(-c2ccccc2)cc1 (relative stereo) [Example 61, N-{4-[trans-2-(tetrahydro-2H-pyran-4-ylamino)cyclopropyl]phenyl}biphenyl-4-carboxamide hydrochloride]",IC50,[1],< 0.1 µM
same,IC50,[2],3.3 µM
same,IC50,[3],2.2 µM
"O=C(Nc1ccc([C@@H]2C[C@H]2NCC2CC2)cc1)c1ccc(-c2cnco2)cc1 (relative stereo) [Example 95, N-(4-{trans-2-[(cyclopropylmethyl)-amino]cyclopropyl}-phenyl)-4-(1,3-oxazol-5-yl)benzamide]",IC50,[1],< 0.1 µM
same,IC50,[2],> 10 µM
same,IC50,[3],> 10 µM
"CC1=NN(c2ccc(C(=O)Nc3ccc([C@@H]4C[C@H]4NCC4CC4)cc3)cc2)C(=O)C1 (relative stereo) [Example 86, N-(4-{trans-2-[(cyclopropylmethyl)amino]cyclopropyl}-phenyl)-4-(3-methyl-5-oxo-4,5-dihydro-1H-pyrazol-1-yl)benzamide]",IC50,[1],1 µM
same,IC50,[2],> 10 µM
same,IC50,[3],> 10 µM
"O=C(Nc1ccc([C@@H]2C[C@H]2NCc2ccccc2)cc1)c1cccc(Cc2ccccc2)c1 (relative stereo) [Example 28, 3-benzyl-N-{4-[trans-2-(benzylamino)cyclopropyl]phenyl}benzamide]",IC50,[1],< 0.1 µM
same,IC50,[2],> 10 µM
same,IC50,[3],3.5 µM
"O=C(Nc1ccc([C@@H]2C[C@H]2NCC2CC2)cc1)c1cc(-c2ccccc2)cs1 (relative stereo) [Example 137, N-(4-{trans-2-[(cyclopropylmethyl)amino]cyclopropyl}phenyl)-4-phenylthiophene-2-carboxamide hydrochloride]",IC50,[1],< 0.1 µM
same,IC50,[2],> 10 µM
same,IC50,[3],4.2 µM
"O=C(Nc1ccc([C@@H]2C[C@H]2NCC2CC2)cc1)c1cc(-c2ccccc2)[nH]n1 (relative stereo) [Example 126, N-(4-{trans-2-[(cyclopropyl-methyl)amino]cyclo-propyl}phenyl)-5-phenyl-1H-pyrazole-3-carboxamide]",IC50,[1],< 0.1 µM
same,IC50,[2],> 10 µM
same,IC50,[3],> 10 µM
"O=C(Nc1ccc([C@@H]2C[C@H]2NCC2CC2)cc1)c1ccc(-c2cccnc2)cc1 (relative stereo) [Example 132, N-(4-{trans-2-[(cyclopropyl-methyl)amino]-cyclopropyl}-phenyl)-4-(pyridin-3-yl)benzamide]",IC50,[1],< 0.1 µM
same,IC50,[2],> 10 µM
same,IC50,[3],8.3 µM
"O=C1c2ccccc2CN1c1ccc([C@@H]2C[C@H]2NCC2CC2)cc1 (relative stereo) [Example 144, 2-(4-{trans-2-[(cyclopropylmethyl)amino]cyclopropyl}phenyl)isoindolin-1-one hydrochloride]",IC50,[1],0.2 µM
same,IC50,[2],> 10 µM
same,IC50,[3],> 10 µM
"O=C(N[C@@H](Cc1ccccc1)C(=O)Nc1ccc(C2CC2NCc2ccccc2)cc1)OCc1ccccc1 (stereo in doubt) [Example 57, N-{4-[trans-2-(benzylamino)cyclopropyl]phenyl}-Nα-[(benzyloxy)carbonyl]-L-phenylalaninamide hydrochloride]",IC50,[1],0.48 µM
same,IC50,[2],> 10 µM
same,IC50,[3],> 10 µM
"O=C(Nc1ccc([C@@H]2C[C@H]2NCC2CC2)cc1)c1cccc(Cn2cncn2)c1 (relative stereo) [Example 147, N-(4-{trans-2-[(cyclopropylmethyl)amino]cyclopropyl}phenyl)-3-(1H-1,2,4-triazol-1-ylmethyl)benzamide hydrochloride]",IC50,[1],< 0.1 µM
same,IC50,[2],> 10 µM
same,IC50,[3],> 10 µM
"COc1cccc(CN[C@@H]2C[C@H]2c2ccc(NC(=O)c3ccc(-c4ccccc4)cc3)cc2)c1 (relative stereo) [Example 41, N-(4-{trans-2-[(3-methoxybenzyl)-amino]cyclo-propyl}phenyl)-biphenyl-4-carboxamide]",IC50,[1],0.11 µM
same,IC50,[2],5.1 µM
same,IC50,[3],5.8 µM
"O=C(Nc1ccc([C@@H]2C[C@H]2NCc2ccc3c(c2)OCO3)cc1)c1ccc(-c2ccccc2)cc1 (relative stereo) [Example 42, N-(4-{trans-2-[(1,3-benzodioxol-5-ylmethyl)amino]-cyclopropyl}-phenyl)biphenyl-4-carboxamide]",IC50,[1],< 0.1 µM
same,IC50,[2],> 10 µM
same,IC50,[3],> 10 µM
"O=C(Nc1ccc([C@@H]2C[C@H]2NCc2cccnc2)cc1)c1ccc(-c2ccccc2)cc1 (relative stereo) [Example 38, N-(4-{trans-2-[(pyridin-3-ylmethyl)amino]-cyclopropyl}-phenyl)biphenyl-4-carboxamide]",IC50,[1],< 0.1 µM
same,IC50,[2],> 10 µM
same,IC50,[3],9.1 µM
"O=C(Nc1ccc([C@@H]2C[C@H]2NCc2ccc(-c3ccccc3)cc2)cc1)c1ccccc1 (relative stereo) [Example 16, N-(4-{trans-2-[(biphenyl-4-ylmethyl)amino]-cyclopropyl}-phenyl)benzamide]",IC50,[1],< 0.1 µM
same,IC50,[2],> 10 µM
same,IC50,[3],4.7 µM
"O=C(Nc1ccc([C@@H]2C[C@H]2NCc2ccccc2)cc1)c1cccc(NCc2ccccc2)c1 (relative stereo) [Example 29, 3-(benzylamino)-N-{4-[trans-2-(benzylamino)cyclopropyl]phenyl}benzamide]",IC50,[1],0.11 µM
same,IC50,[2],> 10 µM
same,IC50,[3],5.2 µM
"O=C(Nc1ccc([C@@H]2C[C@H]2NCc2ccccc2)cc1)c1cccc(C(F)(F)F)c1 (relative stereo) [Example 8, N-{4-[trans-2-(benzylamino)cyclopropyl]phenyl}-3-(trifluoromethyl)benzamide]",IC50,[1],< 0.1 µM
same,IC50,[2],> 10 µM
same,IC50,[3],5.8 µM
"O=C(Nc1ccc([C@@H]2C[C@H]2NCC2CC2)cc1)c1cccc(-c2ncccn2)c1 (relative stereo) [Example 139, N-(4-{trans-2-[(cyclopropylmethyl)amino]cyclopropyl}phenyl)-3-(pyrimidin-2-yl)benzamide hydrochloride]",IC50,[1],< 0.1 µM
same,IC50,[2],> 10 µM
same,IC50,[3],8.2 µM
"CS(=O)(=O)c1ccc(C(=O)Nc2ccc([C@@H]3C[C@H]3NCC3CC3)cc2)cc1 (relative stereo) [Example 87, N-(4-{trans-2-[(cyclopropylmethyl)amino]cyclopropyl}-phenyl)-4-(methylsulfonyl)-benzamide]",IC50,[1],< 0.1 µM
same,IC50,[2],> 10 µM
same,IC50,[3],> 10 µM
"O=C(Nc1ccc([C@@H]2C[C@H]2NCC2CC2)cc1)c1ccc(C(F)(F)F)cc1 (relative stereo) [Example 69, N-(4-{trans-2-[(cyclopropylmethyl)amino]cyclopropyl}phenyl)-4-(trifluoromethyl)benzamide hydrochloride]",IC50,[1],< 0.1 µM
same,IC50,[2],> 10 µM
same,IC50,[3],> 10 µM
"Cc1cc(C(=O)Nc2ccc([C@@H]3C[C@H]3NCC3CC3)cc2)n(C)n1 (relative stereo) [Example 156, N-(4-{trans-2-[(cyclopropylmethyl)amino]cyclopropyl}phenyl)-1,3-dimethyl-1H-pyrazole-5-carboxamide dihydrochloride]",IC50,[1],< 0.1 µM
same,IC50,[2],> 10 µM
same,IC50,[3],> 10 µM
"O=C(Nc1ccc([C@@H]2C[C@H]2NCc2cn3ccsc3n2)cc1)c1cccc(C(F)(F)F)c1 (relative stereo) [Example 160, N-(4-{trans-2-[(imidazo[2,1-b][1,3]thiazol-6-ylmethyl)amino]cyclopropyl}phenyl)-3-(trifluoromethyl)benzamide dihydrochloride]",IC50,[1],< 0.1 µM
same,IC50,[2],> 10 µM
same,IC50,[3],5.1 µM
"Cc1ccc(-c2ccc(C(=O)Nc3ccc([C@@H]4C[C@H]4NCC4CC4)cc3)cc2)cc1 (relative stereo) [Example 118, N-(4-{trans-2-[(cyclopropylmethyl)amino]cyclopropyl}-phenyl)-4′-methylbiphenyl-4-carboxamide]",IC50,[1],0.1 µM
same,IC50,[2],> 10 µM
same,IC50,[3],> 10 µM
